From patent publication US20070099853A1, “Agent for improving physiological motor functions” (SUNTORY LIMITED, priority 2003, published 2007)

Assay: FRAP activity test and antioxidant evaluation test using rats
Format: in vivo, rats of Wistar strain
Conditions: male Wistar rats, oral, 100 mg/kg
Method: Male rats of Wistar strain (9 weeks age) were fasted for one night, a pine bark extract mentioned in Example 1 or vitamin C was compulsorily administered via oral route, and blood was collected from tail vein from time to time to prepare plasma samples. FRAP value of the plasma sample was measured by a method of Benzie (Benzie, I. F. F. and Strain, J. J., Anal. Biochem., 1996, Volume 239, pages 70 to 76) and its changes with a lapse of time were traced as an index for antioxidant activity in blood. The plasma sample (10 μL) was added to 990 μL of FRAP reagent containing 20 mM of FeCl3 followed by being allowed to stand at 37° C. for 4 minutes, and changes in absorbance at 593 nm were measured. The same operation was conducted using a solution containing a predetermined concentration of […] sample and, from the changes in absorbance, a calibration curve for FRAP values was prepared.

## O=C1O[C@H]([C@@H](O)CO)C(O)=C1O [vitamin C]
  FRAP value in blood: an increase in the FRAP value was also observed
